Bounds are passed on as bounds.

What all share (assay type): cell-based
One data set concerns RSV A2 strain. Kind of data set: RSV A2-induced CPE in Hep2 cells. As to conditions: human respiratory syncytial virus, Hep2 cells; for IC50: HEp-2, 120 h, RSV A2 1 MOI, 5 days, resazurin, read-out: RSV A2 CPE IC50; for inhibition at 0.1 µg/mL / inhibition at 0.01 µg/mL: HEp-2, read-out: RSV A2 CPE % Inhibition; for inhibition at 0.1 µg/mL: at 0.1 μg/mL; for inhibition at 0.01 µg/mL: at 0.01 μg/mL (footnote 2). As for the experimental part: (§1) Biological Testing: Experimental Methods Assessment of RSV Induced CPE in Hep2 Cells
(§2) Hep2 cells were seeded (10^3/well/50 μL) in 384-well plates (Catalogue number 353962, BD Falcon, Oxford, UK) in 5% serum free-DMEM containing 2 mM L-glutamine and 1 mM sodium pyruvate one day before infection. RSV A2 strain (#0709161v, NCPV, Public Health England, Wiltshire) or RSV B Washington strain (VR-1580, ATCC, Manassas, Va. 20108) virus solutions were prepared in serum free-DMEM with 2 mM L-glutamine and 1 mM sodium pyruvate, and then added (50 μL/well) to achieve a final virus concentration of 1 MOI for RSV A and 0.1MOI for RSV B. Simultaneously test compounds (0.5 μL DMSO solution) were added to 100 μL of Hep2 cell culture with virus solution to provide a final DMSO solution of 0.5%. Plates were incubated (37° C./5% CO2) for 5 days for studies using RSV A2 strain or 6 days for those using RSV B strain, and then resazurin sodium salt (5 μL of 0.03% solution; Sigma-Aldrich, Dorset, UK) was added to each well and the plate incubated for a further 6 hr (37° C. and 5% CO2). The fluorescence of each well [545 nm (excitation)/590 nm (emission)] was determined using a multi-scanner (Clariostar: BMG, Buckinghamshire, UK). The percentage inhibition for each well was calculated and the IC50, IC75 and IC90 values were calculated from the concentration-response curve generated for each test compound.

In another data set the test system is RSV B Washington strain. Kind of data set: RSV B-induced CPE in Hep2 cells. The conditions noted are these: human respiratory syncytial virus, Hep2 cells; for IC50: HEp-2, 144 h, RSV B Washington 0.1 MOI, 6 days, resazurin, read-out: RSV B CPE IC50; for inhibition at 1 µg/mL: HEp-2, at 1 μg/mL, read-out: RSV B CPE % Inhibition. The method, then:
as §1, §2

Data set [1] can be described thus: Cell viability: resazurin assay in Hep2 cells. The conditions noted are these: human, 5 days incubation. The method, then: Cell Viability: Resazurin Assay Hep2 cells were seeded in 384-well plates (10^3/well/50 μL; BD Falcon Ref 353962) in FBS DMEM (5%, containing 2 mM L-glutamine and 1 mM sodium pyruvate) one day before experimentation. Serum-free DMEM (50 μL) was added to test wells while for control wells the media was removed and sterile water (100 μL) was added. Test compounds (0.5 μL DMSO solution) were added to give a final DMSO concentration of 0.5%. Hep2 cells were incubated with each test compound for 5 days (37° C./5% CO2 in 5% FBS) and then resazurin stock solution (5 μL; 0.03%) was added to each well and the plate incubated further for a further 6 hrs (37° C./5% CO2). The fluorescence of each well at 545 nm (excitation) and 590 nm (emission) was determined using a multi-scanner (Clariostar: BMG Labtech). The percentage loss of cell viability was calculated for each well relative to vehicle (0.5% DMSO) treatment. Where appropriate, a CC50 value was calculated from the concentration-response curve generated from the concentration-response curve for each test compound.
On the technique in general: Alamar Blue is a resazurin reagent that responds to reducing activity.

Broadly, the IC50 is the concentration that gives 50% inhibition. One may read the inhibition as the change of the read-out against control, counted positive when it falls. One may read the CC50 as the concentration that lowers cell viability or growth by half. The low end stands for greater toxicity to the cells, the high end for lower toxicity to the cells. For the molecule `Cc1cnc(N2CC3(CCOCC3)C2)c(C(=O)Nc2ccc(C(=O)N3CCc4cc(-c5nc6cccc(C#N)c6[nH]5)sc4-c4ccccc43)cc2)c1` [Example 18, N-(4-(2-(7-cyano-1H-benzo[d]imidazol-2-yl)-5,6-dihydro-4H-benzo[b]thieno[2,3-d]azepine-6-carbonyl)phenyl)-5-methyl-2-(7-oxa-2-azaspiro[3.5]nonan-2-yl)nicotinamide], in the data set with RSV A2 strain, the IC50 stood at 0.28 nM and the inhibition at 0.1 µg/mL was determined as 100%. Further, in the data set with RSV B Washington strain, the IC50 turned out to be 7.4 nM and the inhibition at 1 µg/mL amounted to 100%. Moreover, the CC50 at 5 days in data set [1] is > 14200 nM.
With `Cc1cnc(N2CC3(CCOCC3)C2)c(C(=O)Nc2ccc(C(=O)N3CCc4cc(-c5nc6ccccc6[nH]5)sc4-c4ccccc43)c(F)c2)c1` [Example 26, N-(4-(2-(1H-benzo[d]imidazol-2-yl)-5,6-dihydro-4H-benzo[b]thieno[2,3-d]azepine-6-carbonyl)-3-fluorophenyl)-5-methyl-2-(7-oxa-2-azaspiro[3.5]nonan-2-yl)nicotinamide], in the data set on RSV A2 strain, the IC50 amounted to 0.27 nM and the inhibition at 0.01 µg/mL was 100%. In the data set with RSV B Washington strain, the IC50 is 12 nM and the inhibition at 1 µg/mL was 100%. Besides, the half-maximal cytotoxic concentration (CC50) at 5 days in data set [1] is > 14300 nM.
As to `Cc1cc(C(=O)Nc2ccc(C(=O)N3CCc4cc(-c5nc6cccc(F)c6[nH]5)sc4-c4ccccc43)cc2)c(N2CC3(CCOCC3)C2)nc1C` [Example 22, N-(4-(2-(7-fluoro-1H-benzo[d]imidazol-2-yl)-5,6-dihydro-4H-benzo[b]thieno[2,3-d]azepine-6-carbonyl)phenyl)-5,6-dimethyl-2-(7-oxa-2-azaspiro[3.5]nonan-2-yl)nicotinamide], in the data set on RSV A2 strain, the 50% inhibitory concentration (IC50) was 1.6 nM and the inhibition at 0.01 µg/mL stood at 90%. In the data set on RSV B Washington strain, the IC50 was found to be 14 nM and the inhibition at 1 µg/mL was determined as 100%. Besides, the CC50 at 5 days in data set [1] is > 14000 nM.
Regarding `Cc1cnc(N2CC3(CCOCC3)C2)c(C(=O)Nc2ccc(C(=O)N3CCc4cc(-c5nc6cccc(C)c6[nH]5)sc4-c4ccccc43)c(F)c2)c1` [Example 27, N-(3-fluoro-4-(2-(7-methyl-1H-benzo[d]imidazol-2-yl)-5,6-dihydro-4H-benzo[b]thieno[2,3-d]azepine-6-carbonyl)phenyl)-5-methyl-2-(7-oxa-2-azaspiro[3.5]nonan-2-yl)nicotinamide], in the data set on RSV A2 strain, the half-maximal inhibitory concentration (IC50) worked out at 0.29 nM and the inhibition at 0.1 µg/mL turned out to be 90%. In addition, in the data set on RSV B Washington strain, the IC50 came to 15 nM and the inhibition at 1 µg/mL came out at 80%. Moreover, the half-maximal cytotoxic concentration (CC50) at 5 days in data set [1] was > 14000 nM.
The corresponding values for `O=C(Nc1ccc(C(=O)N2CCc3cc(-c4nc5cccc(F)c5[nH]4)sc3-c3ccccc32)cc1)c1cccnc1N1CC2(CCOCC2)C1` [Example 8, N-(4-(2-(7-fluoro-1H-benzo[d]imidazol-2-yl)-5,6-dihydro-4H-benzo[b]thieno[2,3-d]azepine-6-carbonyl)phenyl)-2-(7-oxa-2-azaspiro[3.5]nonan-2-yl)nicotinamide] are 0.18 nM, 100%, 26.8 nM, 100% and > 14600 nM.
In the case of `Cc1cnc(N2CC3(CCOCC3)C2)c(C(=O)Nc2ccc(C(=O)N3CCc4cc(-c5nc6ccccc6[nH]5)sc4-c4ccccc43)cc2)c1` [Example 13, N-(4-(2-(1H-benzo[d]imidazol-2-yl)-5,6-dihydro-4H-benzo[b]thieno[2,3-d]azepine-6-carbonyl)phenyl)-5-methyl-2-(7-oxa-2-azaspiro[3.5]nonan-2-yl)nicotinamide], in the data set with RSV A2 strain, the 50% inhibitory concentration (IC50) turned out to be 0.085 nM and the inhibition at 0.1 µg/mL was 100%. Further, in the data set on RSV B Washington strain, the IC50 is 0.99 nM and the inhibition at 1 µg/mL came out at 100%. For the same molecule, the cytotoxic concentration (CC50) at 5 days in data set [1] is > 14700 nM.

Source of the values: US10160772B2, “5,6-dihydro-4H-benzo[b]thieno-[2,3-d]azepine derivatives” (PULMOCIDE LIMITED, priority 2014, dated 2018).
